Ends that are not written are not given here.

Data set [1] has as its system SJ-GBM2 cells. In words: cells. The conditions noted are these: Homo sapiens, 24 h, read-out: IC50 (cell viability).
Procedure: (§1) Cell viability was evaluated by a CCK-8 assay (Dojindo, Japan). Cells were seeded at a density of 4,000 cells per well in 100 μl of growth medium in 96-well plates and grown overnight. Then, the cells were exposed to antisense miR-20a alone, p28 alone or negative control or AmiR20-p28 over a range of concentrations and incubated for 24 hr. According to the manufacturer's instructions, 10 μl of CCK-8 solution was added to each well, followed by incubation for 1 hr at 37° C. The absorbance at 450 nm was determined by a multiplate reader.
(§2) Cell viability (%)=Abs(sample)−Abs(blank)/Abs(no treatment)−Abs(blank)×100
Data set [2] relates to miR21. In words: miR21 expression by qPCR in treated cells. In kind it is cell-based, human.
Data set [3] relates to miR-20a. The experiment in a line: miR-20a expression levels by stem loop qPCR in treated cells. It counts as cell-based, human. The conditions noted are these: any of the cell lines tested; administered alone, 10 nM, 24 hr. An excerpt:
Micro RNA enriched fraction was extracted using the miRNeasy Mini Kit (Qiagen, Catalog #217004) following the manufacturer's instructions. Stem loop real-time qPCR was used to analyze miRNA expression. We designed miR-20a stem loop RT primers and amplification primers according to a previously described method 79. cDNA was synthesized from extracted RNA using unique stem loop RT primers. The sequence of the stem loop primer for miR-20a was 5′-[…]-3′ (SEQ ID NO:7). Reverse transcriptase reactions contained the following reagents: 10 ng of RNA sample, 60 nM stem-loop RT primer, 1×RT buffer, 0.25 mM dNTP, and 4 U/μl reverse transcriptase. Reactions were performed by incubation at 16° C. for 30 min, 42° C. for 30 min and 85° C. for 5 min. Real-time PCR (7300 Real time PCR Systems, Applied Biosystems, CA) was performed using the specific forward primer for miR-20a (5′-[…]-3′ (SEQ ID NO:8)) and a universal reverse primer (5′-GTGCA GGGTC CGAGGT-3′ (SEQ ID NO:9)). The 20-μl PCR mixture included 1×SYBR Premix (Invitrogen), 2 μl of RT products and each forward and reverse primer at 10 nM. Reactions were performed by incubation in a 96-well plate at 95° C. for 30 sec, followed by 35 cycles of 95° C. for 30 sec and 60° C. for 30 sec. U6 was used as an internal control to normalize the level of target miRNAs. The results were verified by performing PCR using M13 modified forward and reverse primers specific to stem loop sequence. The PCR products were visualized in 2% agarose gels and DNA-sequence was confirmed. Human tumor and serum samples were obtained from patients who had signed informed consent and the institutional review board approval was obtained in Pediatric Brain Tumor Consortium (PBTC-041) participating sites.
A general note: In qPCR the cycle at which signal appears reflects the starting amount.

Data set [4] concerns SJ-GBM2, CHLA-200, LN-229 and astrocytes. In words: CCK-8 cell viability assay, set of cell lines tested. In kind it is cell-based, human. As to conditions: component alone; 24 hr. A general note: Tetrazolium dyes change colour on reduction, which living cells bring about.
Procedure: as §1, §2
The test system of data set [5] is SJ-GBM2 cells, CHLA-200 cells and astrocytes. In words: Cellular entry by confocal microscopy. The conditions noted are these: 20 μM Alexa Fluor labeled, 2 hr, 37° C.; pGBM cells vs normal astrocytes. In kind it is cell-based, human. The protocol:
p28 or AmiR20-p28 were dissolved in PBS mixed with Alexa Fluor 568 dye (Invitrogen) at a 1:2 peptide/dye ratio 37. Sodium bicarbonate (pH 8.5) was added and incubated at 4° C. with continuous stirring. Alexa Fluor 568 labeled p28 and AmiR20-p28 were dialyzed against cold-PBS using Slide-A-Lyzer Dialysis Cassettes (Pierce Biotechnology). Similarly, p28 was labeled with ICG as described previously.
SJ-GBM2 cells, CHLA-200 cells and astrocytes (2×10^4 cells/well) were cultured on glass slides placed in 24-well plates. After overnight culture, the cells were washed with PBS and incubated with 20 μM Alexa Fluor 568-labeled p28 peptide in medium (5% FBS and without phenol red) for 2 hr at 37° C. Cells were fixed with 2% formalin for 10 min. After washing, slides were prepared and mounted with Vectashield with DAPI (Vector Laboratories, Catalog #94010). Slides were examined by an LSM 710 confocal laser scanning microscope (Zeiss). Images were processed using ZEN software (ZEISS ZEN Lite). As for a GSC marker, the slides were first incubated with Alexa Fluor 568-labeled AmiR20-p28 for 2 hr at 37° C. Cells were fixed with 2% formalin for 10 min. After washing, slides were incubated with blocking buffer for 1 hr at room temperature, followed by consecutive staining with anti-CD133 antibody (1:500, R&D Systems FAB11331G). Slides were washed and mounted with Vectashield containing DAPI. […]

The conditions of data set [6]: human, in vivo; cited from earlier work.

One may read the IC50 as the concentration that inhibits the measured activity by half. On to `Cn1nnc2c(C(N)=O)ncn2c1=O` [TMZ, temozolomide], for which the IC50 in data set [1] was around 600 µM.
For the compound “AmiR21-p28: cell-penetrating peptide p28 chemically conjugated to antisense-miR21 (LSTAADMQGVVTDGMASGLDKDYLKPDD; also: chemically conjugated to antisense miR-21, site not given here; UniProt P00282 70-97, looked up, fragment)”, the “endogenous miR21” value in data set [2] (pGBM and aGBM cells, Ten nM) was “significantly reduced the endogenous miR21”.
Regarding “p28: CPP derived from Pseudomonas aeruginosa azurin that preferentially enters cancer cells; carrier component tested alone [reference compound]”, in data set [3], the “inhibitory effect on miR-20a expression” value is given as “did not have a significant inhibitory effect”. Also, the “inhibitory effect on cell viability” value in data set [4] was “neither p28 nor AmiR20, alone had an inhibitory effect on cell viability”. Moreover, the “cellular entry (confocal images)” value in data set [5] is recorded as “preferentially penetrated”. In addition, the “reduction of miR21” value in data set [2] (any cell lines tested, component alone) is recorded as “did not induce a significant reduction of miR21”. Further, the tolerability in patients result in data set [6] is “well tolerated without apparent adverse effects, toxicity, or immunogenicity”.

Source of the values: patent US20260193647A1, “MIRNA-BASED CANCER THERAPY WITH A TUMOR-NAVIGATING PEPTIDE” (The Board of Trustees of the Universities of Illinois, priority 2022, published 2026).
